The results in this text go back to a melting point compilation (Tetko et al.; mined from patent text by program, amines drawn as free bases though some values may be those of a salt).

Structures are written as SMILES.

As usually defined, the melting point is the temperature, or range, at which the solid turns liquid. Take `CC(=O)n1c2ccccc2c2[nH]c(=O)c3nccn3c21`: the melting point was found to be 340 °C.

The compound `O=C(CCCCCCCCC(=O)Oc1ccc(C(=O)OCc2ccccc2)cc1)Oc1ccc(C(=O)OCc2ccccc2)cc1` came in with a melting point of 62.5 to 63 °C.

Consider `CC(C)(C)OC(=O)N1C[C@@H](O)C[C@H]1C(=O)OCc1ccccc1`, for which the melting point was in the range of 72 to 73 °C.

For `Cc1oc(-c2ccccc2)nc1CCCCCC(CO)CO`, the melting point was 71 to 74 °C.

`CC(C(N)=O)c1ccc2c(c1)CCc1cccnc1O2` (configuration not stated) yielded a melting point of 162 to 165 °C.

Compound `Cc1ccc(C(=O)[C@@](O)(C(=O)O)[C@H](O)C(=O)O)cc1` displayed a melting point of 126 to 130 °C.

`CCCOc1ccc2c(c1)NC(=O)CO2`: the melting point was 102 to 104 °C.

Turning to `O=C(O)c1cc(CO[N+](=O)[O-])cc(CO[N+](=O)[O-])c1`, the melting point lay in the range of 39 to 41 °C.

Consider `N#Cc1cccc2c1CCC2O` (configuration not stated), for which the melting point was 98 °C.

`CCC(CC)/C(N)=C(\C#N)C(=O)OC(C)C` displayed a melting point of 140 °C.

`CC(C)(C)OC(=O)Nc1cnc(Cl)cc1C(=O)O` registered a melting point of 250 °C.

`CSc1ccc(C2=C(c3ccccc3)C(=O)OC2)cc1F` displayed a melting point of 159 to 160 °C.

For the compound `O=Cc1cnc2sc3cc(F)ccc3n12`, the melting point lay in the range of 182 to 183 °C.

`CN1Cc2c(C#N)ncn2-c2sccc2C1=O` gave a melting point of 197 to 200 °C.

`O=C(O)c1ccc(NCCCOc2cccc3ccccc23)cc1`: the melting point fell in the range of 146 to 147 °C.

With `O=[N+]([O-])c1ccc(Oc2ncc(C(F)(F)F)cc2Cl)cc1`, the melting point is 90 to 91 °C.

`CCc1c(C(=O)C(N)=O)c2cc(OCCCC(=O)O)ccc2n1Cc1ccccc1` displayed a melting point of 173 to 175 °C.

`COc1cc(NCc2ccccc2C)ccc1C(=O)N1CCCC(CC(=O)N2CCN(C)CC2)c2cc(Cl)ccc21` (configuration not stated) gave a melting point of 153 to 154 °C.

As to `CC(=C(C#N)C#N)c1ccc2cc(N3CCN(C(=O)OC(C)(C)C)CC3)ccc2c1`, the melting point is 169 to 171 °C.

`CC(=O)c1c(Nc2ccccc2)n[nH]c1C`: the melting point was in the range of 246 to 247 °C.

Turning to `CC(=O)NCC1CN(c2ccc(N3CCC(=CC#N)C(C)C3)c(F)c2)C(=O)O1` (configuration not stated), the melting point is 152 to 153 °C.

The compound `CS(=O)(=O)c1ccc2c(c1)c1c(n2Cc2ccc(Cl)cc2)C(CC(=O)O)CCC1` (configuration not stated) returned a melting point of 101 to 102 °C.

On to `Cc1ccc2cccc(OCc3c(Cl)ccc(N(C)C(=O)CNC(=O)C=Cc4ccc(C(=O)O)cc4)c3Cl)c2n1`, for which the melting point was 238 to 241 °C.

Consider `CC(=O)Nc1cc(C)nn1C(C)(C)C`, for which the melting point was in the range of 118 to 120 °C.

`O=C(Nc1cc(-c2cccc(C(F)(F)F)c2)no1)c1c(F)cccc1F` showed a melting point of 123 to 126 °C.

`CS(=O)(=O)C(=C1CN(C(c2ccccc2)c2ccccc2)C1)c1cc(Cl)cc(Cl)c1` returned a melting point of 204 °C.

As to `COC(=O)C(C)(C)NC(=O)Nc1ccc(Cl)c(C(F)(F)F)c1`, the melting point was 141 to 142 °C.

As for `Nc1ccc(I)cc1CO`, the melting point amounted to 125 °C.

For `CC1(C)CN(CC(C)(O)c2ccc3c(c2)OCO3)c2nc(-c3ccncn3)cc(=O)n2C1` (configuration not stated), the melting point was 194 to 196 °C.

Compound `COc1ccc(NC(=O)c2ccc([N+](=O)[O-])c(OC)c2)cc1` showed a melting point of 168 to 169 °C.

In the case of `COc1ccc(C=CC=O)cc1OC`, the melting point fell in the range of 74 to 77 °C.

`COc1cc(N)c(Cl)cc1C(=O)NCC12CCCN(CCC1)C2` had a melting point of 202 to 203 °C.

In turn, `CC(C)(C)CCN1C(=O)C(NC(=O)Nc2ccccc2)C(=O)N(c2ccccc2F)c2ccccc21` (configuration not stated) displayed a melting point of 271 to 272 °C.

`COc1ccc(CC2NCCOc3c2cnn(C)c3=O)cc1` (configuration not stated) came in with a melting point of 92 to 93 °C.

Compound `c1ccc(Cn2ccnc2COc2nn3c(-c4ccon4)nnc3c3ccccc23)cc1` displayed a melting point of 198 °C.

With `COC(=O)NC(=N)CC(C)C`, the melting point fell in the range of 82 to 86 °C.

The compound `CCSc1cn(C)cc(-c2cc(C(F)(F)F)ccc2Cl)c1=O` showed a melting point of 127 to 129 °C.

In turn, `CN(C)CCOc1nc(NCc2cccs2)nc(Nc2cccc(C(F)(F)F)c2)n1` showed a melting point of 51 to 53 °C.

As to `O=C(O)CCCCCCCCCCCNC(=O)CCCCCCCCC/C=C/c1ccccc1`, the melting point was in the range of 119 to 121 °C.

Consider `O=c1ccn(CCO)c(C(O)c2cccnc2)c1O` (configuration not stated), for which the melting point fell in the range of 189 to 190 °C.

In turn, `COC(=O)C1CCc2cc(F)cc(C(F)(F)F)c2O1` (configuration not stated) showed a melting point of 71.8 °C.

As to `Nc1cccc(-n2cnc3c([N+](=O)[O-])cccc32)c1`, the melting point was in the range of 105 to 110 °C.

Compound `COCCOCC(=O)Nc1ccnn1-c1c(Cl)cc(C(F)(F)F)cc1Cl` gave a melting point of 158 to 160 °C.

`CC(c1ccc(Br)cc1)N(O)C(=O)NCCO` (configuration not stated) yielded a melting point of 117 to 119 °C.

Turning to `COc1cc(C)cc2c1C(C)(C)CCC2(C)C`, the melting point is 49 to 50 °C.

`CCCCc1ccc(NC(=O)c2ccc(N)cc2)cc1` returned a melting point of 138 °C.

As to `O=C1CCC(N2C(=O)c3cccc(CNC(=O)c4cnc5ccccc5n4)c3C2=O)C(=O)N1` (configuration not stated), the melting point was more than 260 °C.

Regarding `O=S(CCCCCOc1ccc(C2=C(c3ccccc3)CCCc3cc(O)ccc32)cc1)Cc1ccccn1` (configuration not stated), the melting point stood at 176 °C.

In the case of `Nc1c(N=O)c(=O)n(CCC2=CCCCC2)c(=O)n1CCC1=CCCCC1`, the melting point lay within 220 to 222 °C.

The compound `N#CCCN1CCC(C2(c3ccc(F)cc3)OCCO2)CC1` yielded a melting point of 107 to 109 °C.

Regarding `C=CCOC(=O)c1cnn(-c2c(Cl)cc(Br)cc2Cl)c1N`, the melting point is 85 °C.

`COC(=O)c1nn(C)nc1C=O` had a melting point of 107 to 108 °C.

As for `C#Cc1ccc(NC(=O)OC(C)(C)C)c([N+](=O)[O-])c1`, the melting point was 102 °C.

As to `Cc1c(F)c(F)c(F)c2c1c(=O)c(C(=O)O)cn2-c1cccs1`, the melting point lay in the range of 221 to 222 °C.

Consider `CC1(COc2ccc(CC3SC(=O)NC3=O)cc2)CCC(=O)CC1` (configuration not stated), for which the melting point lay in the range of 134 to 135 °C.

Take `COC(=O)c1cn2c(n1)COc1cc(C)c(Cl)cc1-2`: the melting point was 242 to 246 °C.

Take `CC1=C(C(=O)O)Cc2ccc(C)cc21`: the melting point is 174 to 182 °C.

As for `N#CCCNC(=O)c1cccc(-c2cncc3cc(Cc4cccc(C(F)(F)F)c4)oc23)c1`, the melting point was in the range of 152 to 154 °C.

In turn, `O=C1c2ccccc2C(=O)N1CCOc1ccc([N+](=O)[O-])cc1` came in with a melting point of 151 to 153 °C.

For `CCOC(=O)N1CCC(Nc2nc3ccccc3n2Cc2ccc(F)cc2)CC1`, the melting point turned out to be 181 °C.

`S=C(NCCCc1ccccc1)Nc1nccs1` had a melting point of 126 to 128 °C.

For `Brc1ccc2c(c1)sc1cc(Br)ccc12`, the melting point was in the range of 171 to 173 °C.

Compound `CCN(CC)CCNC(=O)Cn1c(-c2ccc(Cl)cc2)nc2cccnc21` displayed a melting point of 142 to 143 °C.

`COC(=O)c1ccc([N+](=O)[O-])cc1-n1c(CCl)nc2ccccc2c1=O`: the melting point fell in the range of 158 to 159 °C.

Consider `O=C(O)c1ccc(Oc2nccs2)c(F)c1`, for which the melting point fell in the range of 133 to 134 °C.

`O=c1c2ccccc2ccn1CCC#Cc1ccccn1`: the melting point lay within 85 to 90 °C.

The compound `Cc1nc2ccccn2c1Cc1ccc(C(=O)O)cc1` had a melting point of 217 °C.
